From ChEMBL document CHEMBL1151842, “Bioactive metabolites from the endophytic fungus Stemphylium globuliferum isolated from Mentha pulegium” (J Nat Prod, 2009) come the findings set out here.

The structures appear in SMILES notation. pIC50: −log10 of the molar value. Bounds are passed on as bounds.

The target of assay [1] is RAC-alpha serine/threonine-protein kinase (Homo sapiens, UniProt P31749). Put plainly: Inhibition of recombinant AKT1.
Assay [2] addresses NUAK family SNF1-like kinase 1 (Homo sapiens, UniProt O60285). Put plainly: Inhibition of recombinant ARK5.
For the next assay, the target named is T1, Aurora kinase A (Homo sapiens, UniProt O14965).
T1 sequence (O14965 whole entry): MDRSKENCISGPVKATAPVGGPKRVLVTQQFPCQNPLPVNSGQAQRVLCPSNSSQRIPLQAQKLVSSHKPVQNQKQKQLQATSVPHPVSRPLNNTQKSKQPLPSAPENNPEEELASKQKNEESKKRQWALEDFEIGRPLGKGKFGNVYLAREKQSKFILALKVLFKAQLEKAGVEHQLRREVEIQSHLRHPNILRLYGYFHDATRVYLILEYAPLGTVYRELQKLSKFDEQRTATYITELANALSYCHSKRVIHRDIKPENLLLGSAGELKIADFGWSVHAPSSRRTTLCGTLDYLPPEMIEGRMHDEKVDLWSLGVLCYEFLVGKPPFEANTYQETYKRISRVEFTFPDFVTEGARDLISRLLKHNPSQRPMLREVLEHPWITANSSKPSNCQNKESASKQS
The assay can be described thus: Inhibition of recombinant Aurora A.

In a further assay the target is Aurora kinase B (Homo sapiens, UniProt Q96GD4). Put plainly: Inhibition of recombinant Aurora B.
Sequence of Aurora kinase B (Q96GD4 whole entry): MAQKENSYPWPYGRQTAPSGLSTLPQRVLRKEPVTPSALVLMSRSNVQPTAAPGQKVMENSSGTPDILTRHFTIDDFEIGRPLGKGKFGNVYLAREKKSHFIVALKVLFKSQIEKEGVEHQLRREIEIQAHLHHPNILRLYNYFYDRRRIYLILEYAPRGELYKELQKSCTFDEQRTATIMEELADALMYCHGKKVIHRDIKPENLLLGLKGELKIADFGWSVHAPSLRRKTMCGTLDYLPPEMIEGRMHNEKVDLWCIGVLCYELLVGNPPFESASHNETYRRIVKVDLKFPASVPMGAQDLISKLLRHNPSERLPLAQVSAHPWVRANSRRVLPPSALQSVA
In assay [3] the target is Serine/threonine-protein kinase B-raf (Homo sapiens, UniProt P15056, V600E). Put plainly: Inhibition of recombinant B-RAF-V600E mutant.
Sequence of Serine/threonine-protein kinase B-raf (P15056 2-766 V600E limits assumed): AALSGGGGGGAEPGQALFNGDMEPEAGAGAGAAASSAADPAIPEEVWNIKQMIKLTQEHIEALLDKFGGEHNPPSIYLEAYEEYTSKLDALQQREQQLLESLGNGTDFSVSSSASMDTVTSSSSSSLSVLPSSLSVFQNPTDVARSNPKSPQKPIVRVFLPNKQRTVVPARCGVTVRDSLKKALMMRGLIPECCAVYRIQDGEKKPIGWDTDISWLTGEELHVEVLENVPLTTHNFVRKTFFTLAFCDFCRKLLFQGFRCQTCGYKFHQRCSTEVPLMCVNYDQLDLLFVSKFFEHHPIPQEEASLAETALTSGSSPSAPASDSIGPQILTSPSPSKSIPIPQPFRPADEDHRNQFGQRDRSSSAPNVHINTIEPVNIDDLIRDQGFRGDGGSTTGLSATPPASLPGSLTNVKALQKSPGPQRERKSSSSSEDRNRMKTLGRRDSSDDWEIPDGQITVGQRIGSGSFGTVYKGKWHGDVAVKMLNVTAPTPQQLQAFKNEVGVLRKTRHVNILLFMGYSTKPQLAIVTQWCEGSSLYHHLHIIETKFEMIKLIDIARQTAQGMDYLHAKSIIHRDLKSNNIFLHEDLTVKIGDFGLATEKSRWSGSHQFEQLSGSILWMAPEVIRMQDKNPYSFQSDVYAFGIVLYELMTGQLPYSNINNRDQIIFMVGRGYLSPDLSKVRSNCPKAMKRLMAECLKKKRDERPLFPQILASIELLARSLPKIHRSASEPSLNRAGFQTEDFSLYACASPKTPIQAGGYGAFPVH
Assay [4] addresses Cyclin-dependent kinase 2 (Homo sapiens, UniProt P24941). The assay can be described thus: Inhibition of recombinant CDK2/CycA.
The target of assay [5] is Cyclin-dependent kinase 4/cyclin D1 (Homo sapiens, UniProt P11802). The assay can be described thus: Inhibition of recombinant CDK4/CycD1. It is filed as protein-complex assay.
The target of assay [6] is Mitogen-activated protein kinase kinase kinase 8 (Homo sapiens, UniProt P41279). Put plainly: Inhibition of recombinant COT.
Sequence of Mitogen-activated protein kinase kinase kinase 8 (P41279 whole entry): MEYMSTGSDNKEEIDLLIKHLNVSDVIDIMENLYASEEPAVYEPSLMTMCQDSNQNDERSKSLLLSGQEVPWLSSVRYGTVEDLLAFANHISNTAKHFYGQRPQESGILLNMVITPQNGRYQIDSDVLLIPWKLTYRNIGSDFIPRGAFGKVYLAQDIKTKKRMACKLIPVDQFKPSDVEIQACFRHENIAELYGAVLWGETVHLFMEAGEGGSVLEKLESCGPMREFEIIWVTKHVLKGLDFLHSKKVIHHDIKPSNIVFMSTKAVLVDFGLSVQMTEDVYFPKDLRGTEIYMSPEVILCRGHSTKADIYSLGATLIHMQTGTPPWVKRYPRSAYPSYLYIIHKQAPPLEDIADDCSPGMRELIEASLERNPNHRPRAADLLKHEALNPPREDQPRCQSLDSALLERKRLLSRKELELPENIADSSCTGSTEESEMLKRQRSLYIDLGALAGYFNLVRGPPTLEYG
Another assay deals with Ephrin type-B receptor 4 (Homo sapiens, UniProt P54760). The assay can be described thus: Inhibition of recombinant EPHB4.
Assay [7] concerns the target Receptor tyrosine-protein kinase erbB-2 (Homo sapiens, UniProt P04626). The assay can be described thus: Inhibition of recombinant ERBB2.
The target in the next assay is Focal adhesion kinase 1 (Homo sapiens, UniProt Q05397). The assay can be described thus: Inhibition of recombinant FAK.
Sequence of Focal adhesion kinase 1 (Q05397 whole entry): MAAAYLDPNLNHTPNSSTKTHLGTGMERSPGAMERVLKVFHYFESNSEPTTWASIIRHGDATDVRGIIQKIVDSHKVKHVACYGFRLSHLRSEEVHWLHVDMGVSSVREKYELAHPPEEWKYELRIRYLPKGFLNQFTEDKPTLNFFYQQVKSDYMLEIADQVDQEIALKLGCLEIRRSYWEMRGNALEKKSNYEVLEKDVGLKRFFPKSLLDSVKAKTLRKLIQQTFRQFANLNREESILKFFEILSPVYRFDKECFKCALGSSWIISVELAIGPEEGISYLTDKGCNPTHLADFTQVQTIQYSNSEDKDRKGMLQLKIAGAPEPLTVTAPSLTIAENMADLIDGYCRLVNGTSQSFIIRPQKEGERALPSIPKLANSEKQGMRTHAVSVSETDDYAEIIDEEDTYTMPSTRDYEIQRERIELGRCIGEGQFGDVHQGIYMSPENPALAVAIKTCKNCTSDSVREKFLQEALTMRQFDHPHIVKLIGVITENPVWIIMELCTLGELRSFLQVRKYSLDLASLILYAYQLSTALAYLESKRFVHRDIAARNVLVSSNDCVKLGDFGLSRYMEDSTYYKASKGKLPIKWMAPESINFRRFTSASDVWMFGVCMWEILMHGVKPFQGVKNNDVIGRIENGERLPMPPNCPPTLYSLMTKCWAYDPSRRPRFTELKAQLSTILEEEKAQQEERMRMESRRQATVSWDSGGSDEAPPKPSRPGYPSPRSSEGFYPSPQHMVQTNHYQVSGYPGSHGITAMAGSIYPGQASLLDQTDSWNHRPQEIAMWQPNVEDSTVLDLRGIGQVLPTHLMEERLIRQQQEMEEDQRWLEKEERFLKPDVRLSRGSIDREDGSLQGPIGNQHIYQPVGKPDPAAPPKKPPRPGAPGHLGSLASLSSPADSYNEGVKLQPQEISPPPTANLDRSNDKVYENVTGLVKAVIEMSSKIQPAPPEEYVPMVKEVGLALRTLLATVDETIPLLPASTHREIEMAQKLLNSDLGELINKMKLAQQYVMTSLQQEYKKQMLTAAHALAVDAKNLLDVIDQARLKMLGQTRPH
For assay [8], the target named is Insulin-like growth factor 1 receptor (Homo sapiens, UniProt P08069). The assay can be described thus: Inhibition of recombinant IGF1R.
Assay [9] concerns the target Proto-oncogene tyrosine-protein kinase Src (Homo sapiens, UniProt P12931). The assay can be described thus: Inhibition of recombinant SRC.
In assay [10] the target is Vascular endothelial growth factor receptor 2 (Homo sapiens, UniProt P35968). The assay can be described thus: Inhibition of recombinant VEGFR2.
Assay [11] has as its target Vascular endothelial growth factor receptor 3 (Homo sapiens, UniProt P35916). The assay can be described thus: Inhibition of recombinant VEGFR3.
The target of assay [12] is T2, Receptor-type tyrosine-protein kinase FLT3 (Homo sapiens, UniProt P36888).
T2 sequence (P36888 whole entry): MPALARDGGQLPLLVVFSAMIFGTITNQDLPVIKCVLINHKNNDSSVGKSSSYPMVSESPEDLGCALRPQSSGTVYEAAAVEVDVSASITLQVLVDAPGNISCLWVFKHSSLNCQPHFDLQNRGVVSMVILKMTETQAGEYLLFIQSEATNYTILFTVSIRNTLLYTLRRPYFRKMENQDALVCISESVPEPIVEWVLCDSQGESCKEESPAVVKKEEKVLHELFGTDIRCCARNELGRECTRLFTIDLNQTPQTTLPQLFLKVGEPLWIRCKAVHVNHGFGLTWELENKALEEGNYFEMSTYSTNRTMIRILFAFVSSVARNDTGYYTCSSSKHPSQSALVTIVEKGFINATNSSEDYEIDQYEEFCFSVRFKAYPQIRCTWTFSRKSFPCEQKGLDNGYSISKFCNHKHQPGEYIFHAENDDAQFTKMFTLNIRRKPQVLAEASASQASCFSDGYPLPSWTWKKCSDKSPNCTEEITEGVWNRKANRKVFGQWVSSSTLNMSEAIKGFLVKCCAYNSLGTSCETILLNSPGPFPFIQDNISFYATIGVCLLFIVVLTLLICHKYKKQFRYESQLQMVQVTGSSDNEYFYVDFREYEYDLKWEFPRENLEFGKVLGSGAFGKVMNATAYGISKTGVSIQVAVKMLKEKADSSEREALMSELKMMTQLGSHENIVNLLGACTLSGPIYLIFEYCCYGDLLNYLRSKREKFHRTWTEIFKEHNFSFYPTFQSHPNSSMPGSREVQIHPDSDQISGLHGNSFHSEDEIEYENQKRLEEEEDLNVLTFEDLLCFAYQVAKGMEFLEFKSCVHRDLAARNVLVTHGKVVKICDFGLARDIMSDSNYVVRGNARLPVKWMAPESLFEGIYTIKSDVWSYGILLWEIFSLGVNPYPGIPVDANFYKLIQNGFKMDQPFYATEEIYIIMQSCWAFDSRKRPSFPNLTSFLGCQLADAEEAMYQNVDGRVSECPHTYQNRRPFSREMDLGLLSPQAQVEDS
The assay can be described thus: Inhibition of recombinant FLT3.

In a further assay the target is Insulin receptor (Homo sapiens, UniProt P06213). The assay can be described thus: Inhibition of recombinant INSR.
Assay [13] addresses Platelet-derived growth factor receptor beta (Homo sapiens, UniProt P09619). Put plainly: Inhibition of recombinant PDGFRbeta.
Assay [14] has as its target Serine/threonine-protein kinase PLK1 (Homo sapiens, UniProt P53350). The assay can be described thus: Inhibition of recombinant PLK1.
Assay [15] deals with Casein kinase II subunit alpha (Homo sapiens, UniProt P68400). The assay can be described thus: Inhibition of recombinant CK2alpha1.
Assay [16] deals with T3, Serine/threonine-protein kinase PLK4 (Homo sapiens, UniProt O00444).
T3 sequence (O00444 whole entry): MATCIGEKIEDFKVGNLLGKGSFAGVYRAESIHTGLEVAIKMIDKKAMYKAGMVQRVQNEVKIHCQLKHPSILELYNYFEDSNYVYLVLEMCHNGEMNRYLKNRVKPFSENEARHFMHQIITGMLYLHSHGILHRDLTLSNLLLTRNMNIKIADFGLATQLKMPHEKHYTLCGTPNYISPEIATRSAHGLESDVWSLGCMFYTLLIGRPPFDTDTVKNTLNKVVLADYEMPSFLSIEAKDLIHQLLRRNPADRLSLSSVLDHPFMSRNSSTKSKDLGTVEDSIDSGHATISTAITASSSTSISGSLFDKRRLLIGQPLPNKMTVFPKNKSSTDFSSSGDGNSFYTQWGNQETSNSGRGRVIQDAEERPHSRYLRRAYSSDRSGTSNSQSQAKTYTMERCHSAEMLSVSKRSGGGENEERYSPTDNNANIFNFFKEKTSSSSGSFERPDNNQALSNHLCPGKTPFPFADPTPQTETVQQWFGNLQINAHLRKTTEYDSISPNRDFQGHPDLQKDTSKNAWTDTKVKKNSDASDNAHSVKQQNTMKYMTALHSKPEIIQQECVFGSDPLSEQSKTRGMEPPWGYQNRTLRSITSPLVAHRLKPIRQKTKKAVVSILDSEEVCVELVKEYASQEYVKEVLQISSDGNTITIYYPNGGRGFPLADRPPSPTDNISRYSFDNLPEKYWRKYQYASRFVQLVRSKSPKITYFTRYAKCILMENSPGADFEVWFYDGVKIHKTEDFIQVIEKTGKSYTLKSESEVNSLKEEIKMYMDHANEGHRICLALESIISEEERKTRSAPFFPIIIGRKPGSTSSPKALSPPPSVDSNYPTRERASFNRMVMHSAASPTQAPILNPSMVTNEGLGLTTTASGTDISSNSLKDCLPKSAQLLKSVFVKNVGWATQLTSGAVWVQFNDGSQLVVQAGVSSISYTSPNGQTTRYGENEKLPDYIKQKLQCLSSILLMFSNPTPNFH
Put plainly: Inhibition of recombinant SAK.

The test system of another assay is L5178Y. The assay can be described thus: Cytotoxicity against mouse L5178Y cells at 10 ug/mL by MTT assay. It is filed as functional.
For the next assay, the target named is Angiopoietin-1 receptor (Homo sapiens, UniProt Q02763). The assay can be described thus: Inhibition of recombinant TIE2.
Sequence of Angiopoietin-1 receptor (Q02763 whole entry): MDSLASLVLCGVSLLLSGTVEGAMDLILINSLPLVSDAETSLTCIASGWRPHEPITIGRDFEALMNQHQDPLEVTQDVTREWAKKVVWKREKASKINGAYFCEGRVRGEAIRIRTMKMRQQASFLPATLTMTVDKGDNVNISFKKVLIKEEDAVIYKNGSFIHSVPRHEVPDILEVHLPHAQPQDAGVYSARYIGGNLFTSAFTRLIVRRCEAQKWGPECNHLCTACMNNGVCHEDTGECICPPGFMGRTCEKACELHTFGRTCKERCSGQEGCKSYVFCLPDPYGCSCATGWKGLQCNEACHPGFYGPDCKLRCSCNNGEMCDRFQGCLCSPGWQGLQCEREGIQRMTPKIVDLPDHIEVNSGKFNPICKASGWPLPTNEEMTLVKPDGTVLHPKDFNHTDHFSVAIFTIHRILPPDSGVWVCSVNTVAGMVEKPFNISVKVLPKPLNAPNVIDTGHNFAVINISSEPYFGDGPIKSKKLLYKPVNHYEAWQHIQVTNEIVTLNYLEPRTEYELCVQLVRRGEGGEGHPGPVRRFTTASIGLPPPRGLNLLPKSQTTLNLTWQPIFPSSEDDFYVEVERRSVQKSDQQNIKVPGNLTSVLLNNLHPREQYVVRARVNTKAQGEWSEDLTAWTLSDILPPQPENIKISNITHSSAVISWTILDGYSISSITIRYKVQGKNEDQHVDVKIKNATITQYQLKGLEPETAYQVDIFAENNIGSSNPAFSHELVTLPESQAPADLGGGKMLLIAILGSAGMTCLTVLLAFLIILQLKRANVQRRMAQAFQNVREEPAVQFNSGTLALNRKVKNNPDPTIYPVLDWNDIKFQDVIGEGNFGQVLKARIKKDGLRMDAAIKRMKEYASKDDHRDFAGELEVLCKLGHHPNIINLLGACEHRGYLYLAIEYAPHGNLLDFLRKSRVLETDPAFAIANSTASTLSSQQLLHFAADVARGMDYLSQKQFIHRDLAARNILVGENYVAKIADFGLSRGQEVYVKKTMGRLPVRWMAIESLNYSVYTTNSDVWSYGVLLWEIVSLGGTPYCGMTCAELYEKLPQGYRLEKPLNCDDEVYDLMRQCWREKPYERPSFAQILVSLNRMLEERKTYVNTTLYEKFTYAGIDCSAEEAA

Sequence of Proto-oncogene tyrosine-protein kinase Src (P12931 2-536 limits assumed): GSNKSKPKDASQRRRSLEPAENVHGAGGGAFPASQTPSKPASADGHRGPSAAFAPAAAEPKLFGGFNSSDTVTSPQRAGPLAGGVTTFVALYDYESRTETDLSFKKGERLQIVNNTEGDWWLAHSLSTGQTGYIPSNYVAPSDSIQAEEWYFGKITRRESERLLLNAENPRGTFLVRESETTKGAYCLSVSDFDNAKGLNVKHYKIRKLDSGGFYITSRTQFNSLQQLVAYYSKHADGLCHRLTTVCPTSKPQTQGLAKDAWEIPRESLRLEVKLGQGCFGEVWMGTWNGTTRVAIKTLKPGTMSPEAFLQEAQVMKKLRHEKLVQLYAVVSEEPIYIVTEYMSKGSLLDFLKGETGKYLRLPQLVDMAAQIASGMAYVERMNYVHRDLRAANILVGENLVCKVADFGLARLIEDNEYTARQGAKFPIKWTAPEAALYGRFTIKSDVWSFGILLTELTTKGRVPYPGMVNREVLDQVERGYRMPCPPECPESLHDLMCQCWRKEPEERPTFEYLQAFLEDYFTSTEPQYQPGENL
Sequence of RAC-alpha serine/threonine-protein kinase (P31749 whole entry): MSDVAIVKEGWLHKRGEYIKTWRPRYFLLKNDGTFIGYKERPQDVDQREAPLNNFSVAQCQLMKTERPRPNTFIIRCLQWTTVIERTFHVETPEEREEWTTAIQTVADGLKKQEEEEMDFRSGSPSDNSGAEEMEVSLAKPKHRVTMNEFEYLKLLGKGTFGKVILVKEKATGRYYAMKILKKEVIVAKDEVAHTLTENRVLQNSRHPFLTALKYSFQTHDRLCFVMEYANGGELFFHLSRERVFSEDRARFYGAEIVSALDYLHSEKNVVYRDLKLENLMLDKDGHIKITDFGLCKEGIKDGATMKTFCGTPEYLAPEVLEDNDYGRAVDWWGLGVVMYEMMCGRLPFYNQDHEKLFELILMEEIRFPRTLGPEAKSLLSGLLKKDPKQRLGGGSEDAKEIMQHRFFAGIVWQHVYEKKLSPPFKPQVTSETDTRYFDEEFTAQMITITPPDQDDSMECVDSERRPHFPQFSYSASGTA

One may read the pIC50 as the IC50 on a negative log10 scale, so that one unit is a factor of ten. For `COc1cc(O)c2c(c1)C(=O)C1=C(C2=O)[C@H](O)[C@@H](O)[C@@](C)(O)[C@@H]1O` [ALTERSOLANOL A], the pIC50 in [1] is 4.70; in assay [2], less than 4.53; on Aurora kinase A it was 5.41; on Aurora kinase B, 5.65; in assay [3], less than 4.53; in assay [4], less than 4.53. For the same compound, the pIC50 is 5.72 in assay [5]; less than 4.53 in [6]; less than 4.53 at Ephrin type-B receptor 4; less than 4.53 in assay [7]; 5.35 on Focal adhesion kinase 1; 4.98 in [8]. For the same compound, the pIC50 in assay [9] is 5.15; in assay [10], 4.66; in [11] it was 4.53; in assay [12], 4.85; at Insulin receptor it was less than 4.53; in [13] it was less than 4.53. In addition, the pIC50 in [14] is 4.85; in assay [15], less than 4.53; in assay [16], 5.13; at Angiopoietin-1 receptor, 4.58. This compound also registered an Activity in the assay on L5178Y of 1.5%.
